The values that follow come from patent publication US20260231945A1, “NEMATICIDAL COMPOUNDS, THEIR COMPOSITION AND USE THEREOF” (priority 2023, published 2026).

This data set concerns Root-knot nematodes Meloidogyne spp. juveniles (J2). Nature of the data set: whole plant or invertebrate. Type of data set: in vivo. Particulars: 70-100 J2 juveniles, 22±2° C., 70±5% RH, dead/inactive counted at 24, 48, 72 and 96 hours (time of rating not stated); for % Mortality Rating: 500 ppm; for mortality at 500 ppm: Meloidogyne. On the procedure:
The compound to be tested (4 mg) was dissolved in 40 μl of DMSO to make 100,000 PPM concentration stock solution. […] The nematode suspension (250 μl) having 70-100 juveniles (J2) of Root-knot nematodes Meloidogyne spp. pipetted out to each cell of 24 well bioassay plate. Sterile water (1 ml) was pipetted out in fresh 2.5 ml Eppendorf micro-centrifuge tubes. The desired concentration (500 ppm) of the compound was prepared by adding stock solution in 2.5 ml Eppendorf micro-centrifuge tubes. For each treatment 4 replications were maintained. The bioassay plates were incubated at 22±2° C. and 70±5% RH in humidity chambers.

In the case of `C=CCc1cccc(C=CC=NC(CCCNC(=N)N)C(=O)O)c1O` (stereo not drawn) [Example 36], the “% Mortality Rating” value is given as “A (70-100)”.

The term mortality denotes the share of the test organisms that died. Low readings indicate a weak lethal effect, high ones a strong lethal effect. On to `N=C(N)NCCC[C@H](/N=C/C=C/c1ccc(F)cc1O)C(=O)O` [Example 2, (E)-N^2-[(2E)-3-(4-fluoro-2-hydroxyphenyl)prop-2-en-1-ylidene]-L-arginine], for which the mortality at 500 ppm lay within 50 to 69%.

For the compound `N=C(N)NCCCC(N=CC=Cc1ccncc1)C(=O)O` (stereo not drawn) [Example 42], the “% Mortality Rating” value was “A (70-100)”.

Take `CCCCCC(/C=N/[C@@H](CCCNC(=N)N)C(=O)O)=C\c1ccccc1` [Example 12, (E)-N^2-[(2E)-2-benzylideneheptylidene]-L-arginine]: the mortality at 500 ppm was 0 to 49%.

On to `N=C(N)NCCC[C@H](/N=C/C=C/c1nccs1)C(=O)O` [Example 23, (E)-N^2-[(2E)-3-(1,3-thiazol-2-yl)prop-2-en-1-ylidene]-L-arginine], for which the mortality at 500 ppm lay within 50 to 69%.

`CC(/C=N/[C@@H](CCCNC(=N)N)C(=O)O)=C\c1ccco1` [Example 15, (E)-N^2-[(2E)-3-(furan-2-yl)-2-methylprop-2-en-1-ylidene]-L-arginine]: the mortality at 500 ppm was 50 to 69%.

For the compound `COc1c(C=CC=NC(CCCNC(=N)N)C(=O)O)ccc2[nH]cnc12` (stereo not drawn) [Example 61], the “% Mortality Rating” value is on record as “C (0 to 49)”.

In the case of `Cc1ccc(/C=C/C=N/[C@@H](CCCNC(=N)N)C(=O)O)cc1` [Example 25, (E)-N^2-[(2E)-3-(4-methylphenyl)prop-2-en-1-ylidene]-L-arginine], the mortality at 500 ppm fell in the range of 70 to 100%.

For the compound `N=C(N)NCCCC(N=CC=Cc1ccn[nH]1)C(=O)O` (stereo not drawn) [Example 50], the “% Mortality Rating” value is on record as “B (50-69)”.

In the case of `COc1ccc(O)c(/C=C/C=N/[C@@H](CCCNC(=N)N)C(=O)O)c1` [Example 5, (E)-N^2-[(2E)-3-(2-hydroxy-5-methoxyphenyl)prop-2-en-1-ylidene]-L-arginine], the mortality at 500 ppm fell in the range of 50 to 69%.

On to `N=C(N)NCCCC(N=CC=Cc1ccc2c[nH]cc2c1Cl)C(=O)O` (stereo not drawn) [Example 60], for which the “% Mortality Rating” value is “B (50-69)”.

In the case of `CCC(C=NC(CCCNC(=N)N)C(=O)O)=Cc1cccs1` (stereo not drawn) [Example 47], the “% Mortality Rating” value is given as “B (50-69)”.

On to `COc1ccccc1/C=C/C=N/[C@@H](CCCNC(=N)N)C(=O)O` [Example 6, (E)-N^2-[(2E)-3-(2-methoxyphenyl)prop-2-en-1-ylidene]-L-arginine], for which the mortality at 500 ppm lay within 70 to 100%.

Regarding `N=C(N)NCCCC(N=CC=Cc1ccccc1C(F)(F)F)C(=O)O` (stereo not drawn) [Example 30], the “% Mortality Rating” value is on record as “B (50-69)”.

With `N=C(N)NCCCC(N=CC=Cc1nc2ccccc2[nH]1)C(=O)O` (stereo not drawn) [Example 55], the “% Mortality Rating” value was “C (0 to 49)”.

With `N=C(N)NCCCC(N=CC=Cc1ccc2ccoc2c1)C(=O)O` (stereo not drawn) [Example 62], the “% Mortality Rating” value is on record as “B (50-69)”.

For the compound `N=C(N)NCCC[C@H](/N=C/C=C/c1ccc(Cl)cc1O)C(=O)O` [Example 4, (E)-N^2-[(2E)-3-(4-chloro-2-hydroxyphenyl)prop-2-en-1-ylidene]-L-arginine], the mortality at 500 ppm fell in the range of 50 to 69%.

Take `CCCCCCC(/C=N/[C@@H](CCCNC(=N)N)C(=O)O)=C\c1ccccc1` [Example 13, (E)-N^2-[(2E)-2-benzylideneoctylidene]-L-arginine]: the mortality at 500 ppm was in the range of 0 to 49%.

Take `N=C(N)NCCCC(N=CC=Cc1ccc2scnc2c1)C(=O)O` (stereo not drawn) [Example 57]: the “% Mortality Rating” value is “A (70-100)”.

Consider `N=C(N)NCCCC(N=CC=Cc1ncco1)C(=O)O` (stereo not drawn) [Example 53], for which the “% Mortality Rating” value was “C (0 to 49)”.

Compound `N=C(N)NCCC[C@H](/N=C/C=C/c1ccsc1)C(=O)O` [Example 21, (E)-N^2-[(2E)-3-(thiophen-3-yl)prop-2-en-1-ylidene]-L-arginine] returned a mortality at 500 ppm of 70 to 100%.

For the compound `N=C(N)NCCCC(N=CC=Cc1cnccn1)C(=O)O` (stereo not drawn) [Example 44], the “% Mortality Rating” value is on record as “B (50-69)”.

For the compound `N=C(N)NCCCC(N=CC=Cc1ccc[nH]1)C(=O)O` (stereo not drawn) [Example 54], the “% Mortality Rating” value is on record as “B (50-69)”.

For `N=C(N)NCCCC(N=CC=Cc1nc2ccccc2o1)C(=O)O` (stereo not drawn) [Example 65], the “% Mortality Rating” value is recorded as “B (50-69)”.

`COc1cc(/C=C/C=N/[C@@H](CCCNC(=N)N)C(=O)O)ccc1O` [Example 17, (E)-N^2-[(2E)-3-(4-hydroxy-3-methoxyphenyl)prop-2-en-1-ylidene]-L-arginine]: the mortality at 500 ppm lay in the range of 70 to 100%.

For the compound `N=C(N)NCCCC(N=CC=Cc1coc2ccccc12)C(=O)O` (stereo not drawn) [Example 64], the “% Mortality Rating” value is on record as “B (50-69)”.

Consider `N=C(N)NCCCC(N=CC=Cc1ccc(C(F)(F)F)cc1)C(=O)O` (stereo not drawn) [Example 28], for which the “% Mortality Rating” value was “B (50-69)”.

For the compound `N=C(N)NCCC[C@H](/N=C/C=C/c1ccccc1OC(=O)c1ccccc1)C(=O)O` [Example 19, (E)-N^2-{(2E)-3-[2-(benzoyloxy)phenyl]prop-2-en-1-ylidene}-L-arginine], the mortality at 500 ppm lay in the range of 0 to 49%.

For the compound `CCC(/C=N/[C@@H](CCCNC(=N)N)C(=O)O)=C\c1ccccc1` [Example 11, (E)-N^2-[(2E)-2-benzylidenebutylidene]-L-arginine], the mortality at 500 ppm was 70 to 100%.

As for `N=C(N)NCCCC(N=CC=Cc1cc2ccccc2o1)C(=O)O` (stereo not drawn) [Example 63], the “% Mortality Rating” value was “A (70-100)”.

On to `C=CCc1cccc(C=CC=NC(CCCNC(=N)N)C(=O)O)c1OC` (stereo not drawn) [Example 37], for which the “% Mortality Rating” value is “B (50-69)”.

As for `N=C(N)NCCC[C@H](/N=C/C=C/c1ccccc1O)C(=O)O` [Example 1, (E)-N^2-[(2E)-3-(2-hydroxyphenyl)prop-2-en-1-ylidene]-L-arginine], the mortality at 500 ppm fell in the range of 70 to 100%.

For `C=CCc1ccc(C=CC=NC(CCCNC(=N)N)C(=O)O)c(O)c1` (stereo not drawn) [Example 35], the “% Mortality Rating” value is listed as “B (50-69)”.

As for `N=C(N)NCCC[C@H](/N=C/C=C/c1ccco1)C(=O)O` [Example 14, (E)-N^2-[(2E)-3-(furan-2-yl)prop-2-en-1-ylidene]-L-arginine], the mortality at 500 ppm fell in the range of 70 to 100%.

The compound `CC(=O)Oc1ccc(/C=C/C=N/[C@@H](CCCNC(=N)N)C(=O)O)cc1` [Example 18, (E)-N^2-{(2E)-3-[4-(acetyloxy)phenyl]prop-2-en-1-ylidene}-L-arginine] yielded a mortality at 500 ppm of 70 to 100%.

With `N=C(N)NCCCC(N=CC=Cc1ccc2cc[nH]c2c1)C(=O)O` (stereo not drawn) [Example 58], the “% Mortality Rating” value is given as “A (70-100)”.

`CCC(/C=N/[C@@H](CCCNC(=N)N)C(=O)O)=C\c1ccco1` [Example 16, (E)-N^2-{(2E)-2-[(furan-2-yl)methylidene]butylidene}-L-arginine] came in with a mortality at 500 ppm of 0 to 49%.

In the case of `CCOc1ccc(C=CC=NC(CCCNC(=N)N)C(=O)O)cc1` (stereo not drawn) [Example 33], the “% Mortality Rating” value is “C (0 to 49)”.

For the compound `COc1cc(/C=C/C=N/[C@@H](CCCNC(=N)N)C(=O)O)ccc1OC(C)=O` [Example 8, (E)-N^2-{(2E)-3-[4-(acetyloxy)-3-methoxyphenyl]prop-2-en-1-ylidene}-L-arginine], the mortality at 500 ppm fell in the range of 0 to 49%.

With `CC(C=NC(CCCNC(=N)N)C(=O)O)=Cc1ccc(C(F)(F)F)cc1` (stereo not drawn) [Example 29], the “% Mortality Rating” value is “B (50-69)”.

For `N=C(N)NCCCC(N=CC=Cc1cnc[nH]1)C(=O)O` (stereo not drawn) [Example 51], the “% Mortality Rating” value is on record as “B (50-69)”.

Regarding `N=C(N)NCCCC(N=CC=Cc1ncc[nH]1)C(=O)O` (stereo not drawn) [Example 52], the “% Mortality Rating” value is “B (50-69)”.

For `CCC(C=NC(CCCNC(=N)N)C(=O)O)=Cc1cscn1` (stereo not drawn) [Example 48], the “% Mortality Rating” value is “B (50-69)”.

With `CCC(C=NC(CCCNC(=N)N)C(=O)O)=Cc1ccccc1OC(F)(F)F` (stereo not drawn) [Example 31], the “% Mortality Rating” value is given as “C (0 to 49)”.

In the case of `N=C(N)NCCCC(N=CC=Cc1ccc2c[nH]cc2c1)C(=O)O` (stereo not drawn) [Example 59], the “% Mortality Rating” value is “A (70-100)”.

`COc1ccc(/C=C/C=N/[C@@H](CCCNC(=N)N)C(=O)O)cc1` [Example 7, (E)-N^2-[(2E)-3-(4-methoxyphenyl)prop-2-en-1-ylidene]-L-arginine] had a mortality at 500 ppm of 70 to 100%.

Consider `CC(/C=N/[C@@H](CCCNC(=N)N)C(=O)O)=C\c1ccccc1` [Example 10, (E)-N^2-[(2E)-2-methyl-3-phenylprop-2-en-1-ylidene]-L-arginine], for which the mortality at 500 ppm lay in the range of 70 to 100%.

Consider `N=C(N)NCCC[C@H](/N=C/C=C/c1nc2ccccc2s1)C(=O)O` [Example 22, (E)-N^2-[(2E)-3-(1,3-benzothiazol-2-yl)prop-2-en-1-ylidene]-L-arginine], for which the mortality at 500 ppm was in the range of 70 to 100%.

Take `C=CCc1ccc(C=CC=NC(CCCNC(=N)N)C(=O)O)cc1` (stereo not drawn) [Example 34]: the “% Mortality Rating” value is “B (50-69)”.

Take `CC(C=NC(CCCNC(=N)N)C(=O)O)=Cc1cccs1` (stereo not drawn) [Example 46]: the “% Mortality Rating” value is on record as “B (50-69)”.

Regarding `C=CCc1ccc(C=CC=NC(CCCNC(=N)N)C(=O)O)c(OC)c1` (stereo not drawn) [Example 38], the “% Mortality Rating” value is on record as “B (50-69)”.

In the case of `N=C(N)NCCCC(N=CC=Cc1cccnn1)C(=O)O` (stereo not drawn) [Example 45], the “% Mortality Rating” value was “C (0 to 49)”.

Consider `N=C(N)NCCCC(N=CC=Cc1ccncn1)C(=O)O` (stereo not drawn) [Example 43], for which the “% Mortality Rating” value is listed as “A (70-100)”.

In the case of `N=C(N)NCCCC(N=CC=Cc1ccccn1)C(=O)O` (stereo not drawn) [Example 40], the “% Mortality Rating” value is listed as “A (70-100)”.
